Measurements: patent US20120157471A1, “BENZIMIDAZOLE DERIVATIVES” (PFIZER INC., priority 2009, published 2012)

How the values were obtained:
[1] = target: T1, human Smo (amino acids 181-787) (Homo sapiens, UniProt Q99835); assay: Smo radioligand competition binding assay (displacement of 3H-PF-03451358 from HEK293 membranes); details: for inhibition at 0.05 µM: 0.05 μM test compound, displacement of 3H-PF-03451358, read-out: SMO % inh. @ 0.05 μM; for IC50: radioligand competition binding
T1 construct: expressed in transfected cells; membrane preparation
T1 sequence (Q99835 181-787): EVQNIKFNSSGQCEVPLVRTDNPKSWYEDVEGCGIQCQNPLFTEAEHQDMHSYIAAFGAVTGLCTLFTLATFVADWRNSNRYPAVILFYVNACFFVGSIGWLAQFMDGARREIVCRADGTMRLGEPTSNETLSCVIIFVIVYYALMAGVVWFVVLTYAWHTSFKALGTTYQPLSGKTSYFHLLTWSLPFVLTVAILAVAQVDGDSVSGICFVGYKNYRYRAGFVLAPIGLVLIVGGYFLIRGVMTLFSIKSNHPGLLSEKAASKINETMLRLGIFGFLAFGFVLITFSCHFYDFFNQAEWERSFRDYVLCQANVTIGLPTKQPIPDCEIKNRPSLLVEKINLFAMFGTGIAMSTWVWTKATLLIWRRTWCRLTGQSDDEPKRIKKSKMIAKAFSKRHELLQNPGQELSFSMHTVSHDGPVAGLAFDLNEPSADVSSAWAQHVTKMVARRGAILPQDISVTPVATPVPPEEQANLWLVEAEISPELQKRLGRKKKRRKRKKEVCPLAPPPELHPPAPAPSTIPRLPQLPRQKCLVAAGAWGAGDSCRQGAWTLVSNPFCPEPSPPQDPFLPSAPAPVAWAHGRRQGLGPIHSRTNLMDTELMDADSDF
Outline: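 Displacement of 3 nM tritiated PF-03451358 measured by filtration and scintillation counting after 2 h at room temperature, using 40 μg/well HEK293 membranes bearing cell-surface Smo 181-787, pH 7.5 buffer. Specific binding defined against 30 μM unlabelled ligand; IC50 via variable-slope sigmoidal fit.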

[2] = tested on: Gli-Luc/MEF cells (Smo); assay: Gli-Luc/MEF assay (Shh-stimulated luciferase reporter under the Gli response element); type: cell-based, mouse; details: Mus musculus, MEF, 48 h
Outline: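 IC50 derived from luminescence (Bright-Glo) after 48 h at 37° C, 5% CO2, with compound at […] (3-fold dilutions) added together with mouse Shh at 2 μg/mL final. Cells: MEFs from Gli-Luc transgenic mice.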

Structure (SMILES) | inhibition at 0.05 µM [1] [%] | IC50 [1] [nM] | IC50 [2] [nM]
CC(=O)N1CCN(c2cc(-c3nc4ccccc4n3C)c(F)cn2)CC1 [Example D-1, 2-[2-(4-acetylpiperazin-1-yl)-5-fluoropyridin-4-yl]-1-methyl-1H-benzimidazole] | 97 | 22 | 27
C[C@@H]1CN(S(C)(=O)=O)CCN1c1cc(-c2nc3ccccc3n2C)c(Cl)cn1 [Example A-166, 2-{5-chloro-2-[(2R)-2-methyl-4-(methylsulfonyl)piperazin-1-yl]pyridin-4-yl}-1-methyl-1H-benzimidazole] | 102 | – | 4
Cn1c(-c2cc(N3CCN(S(=O)(=O)CC(C)(C)O)CC3)ncc2F)nc2ccccc21 [Example D-16, 1-({4-[5-fluoro-4-(1-methyl-1H-benzimidazol-2-yl)pyridin-2-yl]piperazin-1-yl}sulfonyl)-2-methylpropan-2-ol] | 94 | 9 | 3
CC(=O)NC1CCN(c2cc(-c3nc4ccccc4n3C)c(Cl)cn2)C1 (stereo not drawn) [Example A-42, N-{1-[5-chloro-4-(1-methyl-1H-benzimidazol-2-yl)pyridin-2-yl]pyrrolidin-3-yl}acetamide] | 72 | 131 | 92
CNC(=O)N1CCN(c2ncc(Cl)c(-c3nc4ccccc4n3C)n2)CC1 [Example C-7, 4-[5-Chloro-4-(1-methyl-1H-benzimidazol-2-yl)pyrimidin-2-yl]-N-methylpiperazine-1-carboxamide] | 95 | 14 | 18
CNC(=O)N1CCN(c2cc(-c3nc4ccccc4n3C)c(F)cn2)CC1 [Example D-7, 4-[5-fluoro-4-(1-methyl-1H-benzimidazol-2-yl)pyridin-2-yl]-N-methylpiperazine-1-carboxamide] | 88 | 47 | 54
Cc1nnc2n1CCN(c1cc(-c3nc4ccccc4n3C)c(Cl)cn1)CC2 [Example A-67, 7-[5-chloro-4-(1-methyl-1H-benzimidazol-2-yl)pyridin-2-yl]-3-methyl-6,7,8,9-tetrahydro-5H-[1,2,4]triazolo[4,3-d][1,4]diazepine] | 94 | 33 | 26
CCNC(=O)NC1CCN(c2cc(-c3nc4ccccc4n3C)c(F)cn2)CC1 [Example D-8, 1-ethyl-3-{1-[5-fluoro-4-{1-methyl-1H-benzimidazol-2-yl)pyridin-2-yl]piperidin-4-yl}urea] | 95 | 6 | 6
Cc1noc(C2CN(c3cc(-c4nc5ccccc5n4C)c(Cl)cn3)CCO2)n1 (stereo not drawn) [Example A-64, 2-{5-chloro-2-[2-(3-methyl-1,2,4-oxadiazol-5-yl)morpholin-4-yl]pyridin-4-yl}-1-methyl-1H-benzimidazole] | 95 | 28 | 7
Cn1c(-c2cc(N3C[C@@H]4[C@H](C3)[C@H]4NS(C)(=O)=O)ncc2Cl)nc2ccccc21 [Example A-8, N-{(1R,5S,6S)-3-[5-chloro-4-(1-methyl-1H-benzimidazol-2-yl)pyridin-2-yl]-3-azabicyclo[3.1.0]hex-6-yl}methanesulfonamide] | 94 | 64 | 15
Cn1c(-c2cc(N3CCN(S(=O)(=O)CCO)CC3)ncc2F)nc2ccccc21 [Example D-15, 2-({4-[5-fluoro-4-(1-methyl-1H-benzimidazol-2-yl)pyridin-2-yl]piperazin-1-yl}sulfonyl)ethanol] | 101 | 19 | 11
Cn1nc2n(c1=O)CCN(c1cc(-c3nc4ccccc4n3C)c(Cl)cn1)CC2 [Example A-78, 7-[5-chloro-4-(1-methyl-1H-benzimidazol-2-yl)pyridin-2-yl]-2-methyl-2,5,6,7,8,9-hexahydro-3H-[1,2,4]triazolo[4,3-d][1,4]diazepin-3-one] | 92 | 14 | 11
Cn1c(-c2cc(N3CC(c4ccncn4)C3)ncc2Cl)nc2ccccc21 [Example A-125, 2-[5-chloro-2-(3-pyrimidin-4-ylazetidin-1-yl)pyridin-4-yl]-1-methyl-1H-benzimidazole] | 57 | – | 135
Cn1c(-c2cc(N3[C@@H]4CC[C@H]3C[C@@H](NS(C)(=O)=O)C4)ncc2Cl)nc2ccccc21 [Example A-193, N-{(3-endo)-8-[5-chloro-4-(1-methyl-1H-benzimidazol-2-yl)pyridin-2-yl]-8-azabicyclo[3.2.1]oct-3-yl}methanesulfonamide] | 103 | 13 | 2.5
CC(=O)NC1CCN(c2ccc(Cl)c(-c3nc4ccccc4n3C)n2)CC1 [Example B-11, N-{1-[5-chloro-6-(1-methyl-1H-benzimidazol-2-yl)pyridin-2-yl]piperidin-4-yl}acetamide] | 98 | 16 | 7
CN(CCNS(C)(=O)=O)c1cc(-c2nc3ccccc3n2C)c(Cl)cn1 [Example A-145, N-(2-{[5-chloro-4-(1-methyl-1H-benzimidazol-2-yl)pyridin-2-yl](methyl)amino}ethyl)methanesulfonamide] | 97 | 22 | 22
Cn1c(-c2cc(N3CCNC(=O)C3)ncc2Cl)nc2ccccc21 [Example A-174, 4-[5-chloro-4-(1-methyl-1H-benzimidazol-2-yl)pyridin-2-yl]piperazin-2-one] | 86 | 39 | 39
CC(=O)N1CCN(c2cc(-c3nc4ccccc4n3C)c(Cl)cn2)C[C@@H]1C [Example A-162, 2-{2-[(3S)-4-acetyl-3-methylpiperazin-1-yl]-5-chloropyridin-4-yl}-1-methyl-1H-benzimidazole] | 91 | 7 | 5
Cn1c(-c2cc(N3CCN(S(C)(=O)=O)CC3)ncc2F)nc2ccccc21 [Example D-6, 2-{5-fluoro-2-[4-(methylsulfonyl)piperazin-1-yl]pyridin-4-yl}-1-methyl-1H-benzimidazole] | 97 | 12 | 22
CC(=O)N1CCC(N(C)c2cc(-c3nc4ccccc4n3C)c(Cl)cn2)CC1 [Example A-58, N-(1-acetylpiperidin-4-yl)-5-chloro-N-methyl-4-(1-methyl-1H-benzimidazol-2-yl)pyridin-2-amine] | 97 | 15 | 31
Cn1c(-c2ccnc(N3CCNCC3)c2)nc2ccccc21 [Example A-31] | 54 | 645 | 128
Cn1c(-c2cc(N3CCC(C(=O)NCC(C)(C)O)CC3)ncc2Cl)nc2ccccc21 [Example A-212, 1-[5-chloro-4-(1-methyl-1H-benzimidazol-2-yl)pyridin-2-yl]-N-(2-hydroxy-2-methylpropyl)piperidine-4-carboxamide] | 99 | 12 | 29.1
Cn1c(-c2cc(N3CCN(C(=O)c4ncn[nH]4)CC3)ncc2Cl)nc2ccccc21 [Example A-56, 2-{5-chloro-2-[4-(1H-1,2,4-triazol-3-ylcarbonyl)piperazin-1-yl]pyridin-4-yl}-1-methyl-1H-benzimidazole] | 98 | 21 | 9
Cn1c(-c2nc(N3CCN(S(C)(=O)=O)CC3)ncc2Cl)nc2ccccc21 [Example C-3, 2-{5-Chloro-2-[4-(methylsulfonyl)piperazin-1-yl]pyrimidin-4-yl}-1-methyl-1H-benzimidazole] | 96 | 9 | 19
CN(C1CN(c2cc(-c3nc4ccccc4n3C)c(Cl)cn2)C1)S(C)(=O)=O [Example A-149, N-{1-[5-chloro-4-(1-methyl-1H-benzimidazol-2-yl)pyridin-2-yl]azetidin-3-yl}-N-methylmethanesulfonamide] | 95 | 14 | 8
Cn1c(-c2cc(N3CCc4nnc(C5CC5)n4CC3)ncc2Cl)nc2ccccc21 [Example A-68, 7-[5-chloro-4-(1-methyl-1H-benzimidazol-2-yl)pyridin-2-yl]-3-cyclopropyl-6,7,8,9-tetrahydro-5H-[1,2,4]triazolo[4,3-d][1,4]diazepine] | 94 | 21 | 20
Cc1cnc(N2CCN(S(C)(=O)=O)CC2)cc1-c1nc2ccccc2n1C [Example E-3, 1-methyl-2-{5-methyl-2-[4-(methylsulfonyl)piperazin-1-yl]pyridin-4-yl}-1H-benzimidazole] | 97 | 33 | 38.1
Cn1c(-c2cc(N3CC(c4ncccn4)C3)ncc2Cl)nc2ccccc21 [Example A-131, 2-[5-chloro-2-(3-pyrimidin-2-ylazetidin-1-yl)pyridin-4-yl]-1-methyl-1H-benzimidazole] | 52 | – | 161
CN(CC(N)=O)c1cc(-c2nc3ccccc3n2C)c(Cl)cn1 [Example A-186, N~2~-[5-chloro-4-(1-methyl-1H-benzimidazol-2-yl)pyridin-2-yl]-N~2~-methylglycinamide] | 78 | 97 | 65
COC(=O)NC1CCN(c2cc(-c3nc4ccccc4n3C)ccn2)CC1 [Example A-19, methyl {1-[4-(1-methyl-1H-benzimidazol-2-yl)pyridin-2-yl]piperidin-4-yl}carbamate] | 84 | 25 | 15
